{"source": "patent US20250073182A1", "about": "“LOW DOSAGE GOSSYPOL CON[…] RODENTS” (priority 2023, published 2025)", "origin": "cited, not measured here", "key": {"[1]": {"tested_on": "male rats"}, "[2]": {"tested_on": "male mice"}, "[3]": {"tested_on": "female rats", "settings": "female rats (Gadelha et al. 2014; Lin, et al., 1985)"}, "[4]": {"tested_on": "ovarian follicles of female mice", "settings": "in vitro, all stages of development (Luz et al. 2018; Ding et al. 2021)"}, "[5]": {"settings": "gossypol in cottonseed meal at 15 mg/kg per day for 4 weeks"}, "[6]": {"settings": "low doses, after 4 weeks (Nadakavukaren et al. 1979)"}}}
{"smiles": "Cc1cc2c(C(C)C)c(O)c(O)c(C=O)c2c(O)c1-c1c(C)cc2c(C(C)C)c(O)c(O)c(C=O)c2c1O", "note": "(atropisomer, axis not shown) [gossypol]", "values": [{"measurement": "epididymal and accessory sex glands weights", "setting": "[1]; daily 30 mg/kg for 6 weeks or 7.5 and 15 mg/kg for 12 weeks (Chang et al. 1982)", "result": "reduced"}, {"measurement": "fertility", "setting": "[1]; [5]", "result": "reduced"}, {"measurement": "toxicity", "setting": "[1]; [5]", "result": "absent"}, {"measurement": "effects at high doses in rats", "setting": "[1]; high doses (Romualdo et al. 2002; Gadelha et al. 2014)", "result": "reduced food intake, anorexia, and hepatic toxicity"}, {"measurement": "offspring produced", "setting": "[1]; [6]", "result": "no offspring were produced"}, {"measurement": "spermatozoa with defects", "setting": "[1]; [6]", "result": "over 50%"}, {"measurement": "pregnancy rates", "setting": "[1]; male rats given ≥10 mg/kg/d, bred to fertile females, as early as 6 weeks (Randel et al. 1992)", "result": "significantly lower"}, {"measurement": "fertility after withdrawal of treatment", "setting": "[1]; rats (Chang et al. 1982)", "result": "recovery in fertility"}, {"measurement": "seminal vesicle weight", "setting": "[2]; 20 or 40 mg/kg body weight, 3 weeks (Singh and Rath, 1990)", "result": "significant decrease"}, {"measurement": "sperm counts", "setting": "[2]; two mouse strains, 10 and 20 mg/kg BW orally for 4 weeks (Hunt and Mittwoch 1984)", "result": "reduced"}, {"measurement": "estrous cycle", "setting": "[3]", "result": "longer estrous cycle"}, {"measurement": "number of atretic follicles", "setting": "[4]", "result": "increased"}, {"measurement": "number of viable follicles", "setting": "[4]", "result": "significantly decreased"}]}
